Measured values from patent US20260262643A1, “HERBICIDAL BENZOXAZINES” (FMC CORPORATION, priority 2022, published 2026).

Experiments:
soybean [1] = assay: Test C preemergence; type: in vivo, Glycine max
In short: (§1)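 Test material, in non-phytotoxic solvent with surfactant, was sprayed on the soil directly after seeding (preemergence) or on young plants of 2–10 cm with one to two leaves (postemergence). Greenhouse, 10 days; 0–100 visual control scale.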

blackgrass [2] = assay: Test C preemergence; type: in vivo, Alopecurus myosuroides
In short: as §1

ragweed [3] = assay: Test C postemergence; type: in vivo, Ambrosia artemisiifolia; settings: 10 days, 0 to 100 scale (0 no effect, 100 complete control)
In short: as §1

ryegrass, Italian [4] = assay: Test C postemergence; type: in vivo, Lolium multiflorum; settings: 10 days, 0 to 100 scale (0 no effect, 100 complete control)
In short: as §1

foxtail, giant [5] = assay: Test C postemergence; type: in vivo, Setaria faberi; settings: 10 days, 0 to 100 scale (0 no effect, 100 complete control)
Description: (§2) Seeds of plant species selected from barnyardgrass (Echinochloa crusgalli), blackgrass (Alopecurus myosuroides), corn (Zea mays), foxtail, giant (giant foxtail, Setaria faberi), green foxtail (Setaria viridis), goosegrass (Eleusine indica), kochia (Bassia scoparia), oat, wild (wild oat, Avena fatua), pigweed, palmer (palmer amaranth, palmer pigweed, Amaranthus palmeri), Pigweed, Redroot (redroot pigweed, Amaranthus retroflexus), ragweed (common ragweed, Ambrosia artemisiifolia), ryegrass, Italian ([…] ryegrass, Lolium multiflorum), soybean (Glycine max), and wheat (Triticum aestivum) were planted into a blend of loam soil and sand and treated preemergence with a directed soil spray using test chemicals formulated in a non-phytotoxic solvent mixture which included a surfactant. At the same time, plants selected from these crops and weed species and also galium (catchweed bedstraw, Galium aparine) and horseweed (Erigeron canadensis) were planted in pots containing the same blend of loam soil and sand and treated with postemergence applications of test chemicals formulated in the same manner. Plants ranged in height from 2 to 10 cm and were in the one- to two-leaf stage for the postemergence treatment. Treated plants and untreated controls were maintained in a greenhouse for 10 days, after which time all treated plants were compared to untreated controls and visually evaluated for injury. Plant response ratings, summarized in Table C, are based on a 0 to 100 scale where 0 is no effect and 100 is complete control. A dash (-) response means no test result.

kochia [6] = assay: Test C preemergence; type: in vivo, Bassia scoparia
In short: as §1

pigweed, palmer [7] = assay: Test C postemergence; type: in vivo, Amaranthus palmeri; settings: 10 days, 0 to 100 scale (0 no effect, 100 complete control)
In short: as §1

horseweed = assay: Test C postemergence; type: in vivo, Erigeron canadensis; settings: 10 days, 0 to 100 scale (0 no effect, 100 complete control)
In short: as §1

kochia [8] = assay: Test C postemergence; type: in vivo, Bassia scoparia; settings: 10 days, 0 to 100 scale (0 no effect, 100 complete control)
In short: as §1

ducksalad = assay: Test D flooded paddy test; type: in vivo, Heteranthera limosa; settings: 250 g ai/ha, applied to paddy water, visual rating after 13 to 14 days, scale 0 to 100 (0 no effect, 100 complete control)
In short: (§3)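 Plants grown to the 2-leaf stage; pots flooded to 3 cm above soil at treatment and held at that depth throughout. Test compounds applied directly to the paddy water. After 13 to 14 days in a greenhouse, response was rated visually versus controls on a 0 (no effect) to 100 (complete control) scale.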

wheat [9] = assay: Test C postemergence; type: in vivo, Triticum aestivum; settings: 10 days, 0 to 100 scale (0 no effect, 100 complete control)
In short: as §1

pigweed, palmer [10] = assay: Test C preemergence; type: in vivo, Amaranthus palmeri
In short: as §1

rice = assay: Test D flooded paddy test; type: in vivo, Oryza sativa; settings: 250 g ai/ha, applied to paddy water, visual rating after 13 to 14 days, scale 0 to 100 (0 no effect, 100 complete control)
In short: as §3

ryegrass, Italian [11] = assay: Test C preemergence; type: in vivo, Lolium multiflorum
In short: as §1

oat, wild [12] = assay: Test C postemergence; type: in vivo, Avena fatua; settings: 10 days, 0 to 100 scale (0 no effect, 100 complete control)
In short: as §1

soybean [13] = assay: Test C postemergence; type: in vivo, Glycine max; settings: 10 days, 0 to 100 scale (0 no effect, 100 complete control)
In short: as §1

oat, wild [14] = assay: Test C preemergence; type: in vivo, Avena fatua
In short: as §1

galium = assay: Test C postemergence; type: in vivo, Galium aparine; settings: 10 days, 0 to 100 scale (0 no effect, 100 complete control)
In short: as §1

barnyardgrass [15] = assay: Test C preemergence; type: in vivo, Echinochloa crusgalli
In short: as §1

barnyardgrass [16] = assay: Test D flooded paddy test; type: in vivo, Echinochloa crus-galli; settings: 250 g ai/ha, applied to paddy water, visual rating after 13 to 14 days, scale 0 to 100 (0 no effect, 100 complete control)
In short: as §3

sedge, umbrella = assay: Test D flooded paddy test; type: in vivo, Cyperus difformis; settings: 250 g ai/ha, applied to paddy water, visual rating after 13 to 14 days, scale 0 to 100 (0 no effect, 100 complete control)
In short: as §3

wheat [17] = assay: Test C preemergence; type: in vivo, Triticum aestivum
In short: as §1

barnyardgrass [18] = assay: Test C postemergence; type: in vivo, Echinochloa crusgalli; settings: 10 days, 0 to 100 scale (0 no effect, 100 complete control)
In short: as §1

corn [19] = assay: Test C preemergence; type: in vivo, Zea mays
In short: as §1

foxtail, giant [20] = assay: Test C preemergence; type: in vivo, Setaria faberi
Description: as §2

corn [21] = assay: Test C postemergence; type: in vivo, Zea mays; settings: 10 days, 0 to 100 scale (0 no effect, 100 complete control)
In short: as §1

ragweed [22] = assay: Test C preemergence; type: in vivo, Ambrosia artemisiifolia
In short: as §1

blackgrass [23] = assay: Test C postemergence; type: in vivo, Alopecurus myosuroides; settings: 10 days, 0 to 100 scale (0 no effect, 100 complete control)
In short: as §1

[24] = 500 g ai/ha, preemergence, 0 to 100 scale (0 no effect, 100 complete control)
[25] = Preemergence, 125 g ai/ha, 0 to 100 scale, 0 no effect, 100 complete control

Cc1cccc2c1OC(C(F)(F)F)CN2C(=O)c1ccnc(-n2cnc(C(C)C)n2)c1 (single isomer, unassigned) [Compound 328]
Soybean plant response rating (soybean [1]; [24]): 100 | Plant response rating, Soybean (soybean [1]; [25]): 100 | Blackgrass plant response rating (blackgrass [2]; [24]): 80 | Plant response rating, Blackgrass (blackgrass [2]; [25]): 80 | Plant response rating, Ragweed (ragweed [3]; 500 g ai/ha, postemergence): 60 | Plant response rating, Ragweed (ragweed [3]; Postemergence, 125 g ai/ha): 40 | Plant response rating, Ryegrass, Italian (ryegrass, Italian [4]; 500 g ai/ha, postemergence): 90 | Plant response rating, Ryegrass, Italian (ryegrass, Italian [4]; Postemergence, 125 g ai/ha): 50 | Plant response rating, Foxtail, Giant (foxtail, giant [5]; 500 g ai/ha, postemergence): 90 | Plant response rating, Foxtail, Giant (foxtail, giant [5]; Postemergence, 125 g ai/ha): 90 | Kochia plant response rating (kochia [6]; [24]): 70 | Plant response rating, Kochia (kochia [6]; [25]): 0 | Plant response rating, Pigweed, Palmer (pigweed, palmer [7]; 500 g ai/ha, postemergence): 90 | Plant response rating, Pigweed, Palmer (pigweed, palmer [7]; Postemergence, 125 g ai/ha): 50 | Plant response rating, Horseweed (horseweed; 500 g ai/ha, postemergence): 60 | Plant response rating, Horseweed (horseweed; Postemergence, 125 g ai/ha): 0 | Plant response rating, Kochia (kochia [8]; 500 g ai/ha, postemergence): 80 | Plant response rating, Kochia (kochia [8]; Postemergence, 125 g ai/ha): 50 | Plant response rating, Ducksalad (Flood) (ducksalad): 30 | Plant response rating, Wheat (wheat [9]; 500 g ai/ha, postemergence): 30 | Plant response rating, Wheat (wheat [9]; Postemergence, 125 g ai/ha): 30 | Pigweed, Palmer plant response rating (pigweed, palmer [10]; [24]): 100 | Plant response rating, Pigweed, Palmer (pigweed, palmer [10]; [25]): 40 | Plant response rating, Rice (Flood) (rice): 0 | Ryegrass, Italian plant response rating (ryegrass, Italian [11]; [24]): 100 | Plant response rating, Ryegrass, Italian (ryegrass, Italian [11]; [25]): 90 | Plant response rating, Oat, Wild (oat, wild [12]; 500 g ai/ha, postemergence): 40 | Plant response rating, Oat, Wild (oat, wild [12]; Postemergence, 125 g ai/ha): 20 | Plant response rating, Soybean (soybean [13]; 500 g ai/ha, postemergence): 100 | Plant response rating, Soybean (soybean [13]; Postemergence, 125 g ai/ha): 100 | Oat, Wild plant response rating (oat, wild [14]; [24]): 90 | Plant response rating, Oat, Wild (oat, wild [14]; [25]): 30 | Plant response rating, Galium (galium; 500 g ai/ha, postemergence): 100 | Plant response rating, Galium (galium; Postemergence, 125 g ai/ha): 80 | Barnyardgrass plant response rating (barnyardgrass [15]; [24]): 100 | Plant response rating, Barnyardgrass (barnyardgrass [15]; [25]): 90 | Plant response rating, Barnyardgrass (Flood) (barnyardgrass [16]): 15 | Plant response rating, Sedge, Umbrella (Flood) (sedge, umbrella): 85 | Wheat plant response rating (wheat [17]; [24]): 90 | Plant response rating, Wheat (wheat [17]; [25]): 20 | Plant response rating, Barnyardgrass (barnyardgrass [18]; 500 g ai/ha, postemergence): 90 | Plant response rating, Barnyardgrass (barnyardgrass [18]; Postemergence, 125 g ai/ha): 60 | Corn plant response rating (corn [19]; [24]): 90 | Plant response rating, Corn (corn [19]; [25]): 30 | Foxtail, Giant plant response rating (foxtail, giant [20]; [24]): 100 | Plant response rating, Foxtail, Giant (foxtail, giant [20]; [25]): 100 | Plant response rating, Corn (corn [21]; 500 g ai/ha, postemergence): 70 | Plant response rating, Corn (corn [21]; Postemergence, 125 g ai/ha): 20 | Ragweed plant response rating (ragweed [22]; [24]): 50 | Plant response rating, Ragweed (ragweed [22]; [25]): 0 | Plant response rating, Blackgrass (blackgrass [23]; 500 g ai/ha, postemergence): 80 | Plant response rating, Blackgrass (blackgrass [23]; Postemergence, 125 g ai/ha): 60
